Values joined by “and” are separate entries in the source; they are usually repeats but may differ in a detail not shown here. Identical values can stand only once.
Assays:
Type in all cases: in vivo, Sprague-Dawley rats
[1] = test system: SNL operated SD rats; assay: Data mining (contrastive PCA) of multivariate kinematic gait data: SNL model score and sedation score; details: 50 mg/kg
Procedure: In this Example, data mining was performed to extend the multivariate kinematic data analysis and capture (a) Parameters indicative of analgesia vs. sedation phenotypes (analgesic or sedation ‘fingerprint’) (b) Quantitative measurement of parameters attributed to the temporal aspects of motion to evaluate temporal aspects of motion, such as positions, angles, velocities, and accelerations of body segments and joints during motion. Briefly, Contrastive Principal Component Analysis (cPCA) was utilized to identify different combinations of original variables which were linked to model effect, learning effect, and sedative effects. An orthogonalization procedure was used to make the obtained effects independent. cPC scores corresponding to identified cPCs were computed. In order to evaluate the analgesic and sedative effects of CBD:CBC:THC 5:5:5 mg/kg group, separate comparisons were performed with vehicle and pregabalin as controls, CBD+THC 10:10 mg/kg as positive control for sedation and CBC 10 mg/kg as negative control for sedation. The results of these comparisons were obtained by using all the previously identified components: model effect, learning effect and model orthogonal to learning, sedation orthogonal to model, and finally, the sedation orthogonal to both model and learning. […]

[2] = test system: SNL operated SD rats; assay: Tactile allodynia test, electronic von Frey (evF), paw withdrawal threshold in spinal nerve ligation (SNL) rats
Procedure: Spinal Nerve Ligation (SNL) Surgery. The animals were enrolled to SNL surgery in daily cohorts of n=6. The rats first received an intraperitoneal dose of 0.03 mg/kg buprenorphine (Temgesic), minimum of 30 minutes prior to the surgery, to alleviate the operative and postoperative pain unrelated to neuropathy. Prior to spinal nerve ligation (SNL) procedure, the rats were anesthetized with isoflurane in 70% N2O and 30% O2; with a flow rate of 300 ml/min. Anesthesia was inducted in a chamber with 5% isoflurane for 2-3 min, and maintained through a snout mask with 1-2% isoflurane thereafter. A homeothermic blanket system was used for the rectal temperature to be monitored and maintained at 37.0° C.±1.5° C. during the operation.
A dorsal incision extending from L3 to S2 was performed to the medial dorsal area of the rat using aseptic technique. The L6/S1 posterior interarticular process was exposed using a combination of blunt and sharp dissection. The L6 transverse process in the spinal column was visualized and partially removed without manipulating the nerves, followed by exposing the L4 and L5 spinal nerves distal to their emergence from the intervertebral foramina.
The L5 nerve was ligated tightly with 6-0 silk suture. The L6 nerve was then located caudal and medial to the sacroiliac junction and tightly ligated with 6-0 silk suture, similarly to L5. Both ligatures were performed as double knots.
Tactile Allodynia Test (evF) and Pre-Handling and Baseline evF. In this study, mechanical sensitivity to touch stimuli was defined at four timepoints by using electronic von Frey (evF) device along with the attached analysis software (Somedic®, Sweden).
To perform the evF test, the rats were placed in individual von Frey test chambers standing on an elevated steel mesh. The rats were then allowed to adapt in the chambers, and the test per se was emerged after they have settled down followed by investigating the chamber and grooming (approximately 15 min). Test […] an animals were grooming, urinating, defecating or sleeping. Further description of test procedure is provided hereinbelow.
Conducting evF Test. Mechanical allodynia were assessed by evF test prior to SNL surgery (baseline), to define the individual sensitivity levels of the study animals. Next, the evF was performed on D 7 post-SNL, to assess the hypersensitivity evoked by the SNL surgery, and to provide pre-dosing sensitivity values for comparing. On D 8, the animals were subjected to the test at 2 h post-dosing (PD), at 4 h PD and at 8 h PD. Subsequently, the test was performed at 24 h PD, i.e. on D 9. On D 9, Group 2 received Pregabalin (i.p) at 2 h prior to testing.
The evF apparatus was used according to the manufacturer's instructions. Briefly, upon each measurement, the force is applied to mid-plantar surface of the hind paw in a linearly increasing rate.
The used evF probe diameter was 1 mm, and the chosen ascent rate of the force 10 g/s. The linearity of force application was monitored in real time. The applied force (in grams) causing paw withdrawal was recorded by the apparatus as the result for the trial.
Altogether, 5 repeated measurements were applied to each hind paw at each time-point leaving a minimum of 3-min interval between the repeats. Medians of the 5 measurement repeats were determined from each paw at any given time point. Both ipsi- and contralateral paws were also tested on each test day.

[3] = test system: SNL operated SD rats; assay: Fine motor kinematic gait analysis (MotoRater) in SNL rats; details: within group, D7 to 24 h PD
Procedure: Fine Motor Kinematic Gait Analysis. The rats were subjected to gait analysis at the baseline and on study days 8, 9, 11, 14 and 17, at a minimum of 30 min after the evF test. The assay were carried out by MotoRater (TSE Systems, Homburg, Germany), with the walking mode. Prior to commencing the test, the essential body points (e.g. joints, limbs, nose, tail) were marked for tracking. The information of the gait performance was captured using a high speed camera (300 frames/second) from below and both sides. Next, the captured videos were converted to SimiMotion™ software. The raw data were obtained by tracking the marked points of the body from the videos recorded from all 3 dimensions. […]
Different gait patterns and movements were analyzed using a custom-made automated analysis system. […]
All Motorater data were analyzed for the distinct parameters, as well as for all combined parameters, using principal component analysis (PCA). […]
Comprehensive kinematic analysis was performed by high sensitivity MotoRater that allows detection of any subtle to severe gait changes in SNL model. […] The fine motor capabilities and the gait of the animals were evaluated at the baseline and four times after the SNL surgery, 2 h, 5 h, 9 h and 24 hours post-dosing using the kinematic movement analysis of altogether 97 separate parameters that were recorded.

CC(C)C[C@H](CN)CC(=O)O [Pregabalin]
analgesic or sedative effect in the kinematic data [1]: no analgesic or sedative effect
Mean Diff, evF AUC ([2]; 5 mg/kg subset, labelled group vs. CBD + THC + CBC 5:5:1 mg/kg): 13.8 and 14
Mean Diff, evF AUC ([2]; 5 mg/kg subset, labelled group vs. Vehicle): 29.8 and 30
Mean (Mean 1/Mean 2), electronic von Frey Area Under the Curve (AUC) ([2]; Table 2B, 5 mg/kg subset, AUC of % of baseline PWT, pre-dosing to 24 h post-dosing, dose as in label, cannabinoids p.o. D8, Pregabalin 50 mg/kg i.p.): 271
Mean (Mean 1/Mean 2), electronic von Frey AUC ([2]; Table 3, 10 mg/kg subset, AUC of % of baseline PWT, pre-dosing to 24 h post-dosing, dose as in label, cannabinoids p.o. D8, Pregabalin 50 mg/kg i.p.): 270.8
Mean Diff, evF AUC ([2]; Table 3, labelled group vs. CBD + THC 10 mg/kg): −63.2
Mean Diff, evF AUC ([2]; Table 3, labelled group vs. CBD + THC 10 mg/kg + CBC 2 mg/kg): −49.2
Mean Diff, evF AUC ([2]; Table 3, labelled group vs. Vehicle): 29.8
Mean Diff, evF AUC ([2]; vs. Vehicle, separate 'Tukey's multiple comparison test' block at foot of Tables 2A/2B): 29.8 and 30
overall gait score pattern over time, in words [3]: increasing score until 9 h PD timepoint
